Source: patent publication US20180298405A1, “METHODS AND COMPOSITIONS TO INCREASE HUMAN SOMATIC CELL NUCLEAR TRANSFER (SCNT) EFFICIENCY BY REMOVING HISTONE H3-LYSINE TRIMETHYLATION, AND DERIVATION OF HUMAN NT-ESC” (CHILDREN'S MEDICAL CENTER CORPORATION, priority 2015, published 2018)

Tested on: reprogramming resistant regions (RRRs) / ZGA genes
Assay: RNA-seq of late 8-cell human SCNT embryos with or without KDM4A mRNA injection (ZGA of RRRs, KDM4A-responsive genes)
Format: cell-based
Conditions: 8-cell embryos
Text: A sliding window (size 20 kb, step size 10 kb) was used to assess the genome-wide expression level of 4-cell and 8-cell human embryos. For each window, the expression level was quantified with normalized RPM (reads per millions of uniquely mapped reads). […] These activated regions were classed into three groups based on their expression differences in human SCNT and IVF 8-cell embryos.
The SCNT embryos used for ZGA analysis were generated using oocytes donated by a single healthy person (#64) and dermal fibroblast cells from an AMD patient (DFB-8). SCNT and IVF embryos were cultured up to late 8-cell stage, when the compaction of blastomeres is initiated, then they were treated briefly with acid Tyrode solution to remove zona pellucida. To prepare for the 8-cell SCNT embryo, oocytes from a single oocyte donor, and skin fibroblast cells from a single somatic nuclear donor were used. All the procedures are the same as described in the “Human SCNT procedure and KMD4A mRNA injection” section. Only embryos that reached the late 8-cell stage synchronically 74 hours post activation were collected and used for this experiment.
For preparation of the control IVF embryos, several donated early 8-cell stage IVF embryos were thawed and cultured for 5-7 hours to allow them to reach late 8-cell stage before being processed. After removal of the zona pellucida, the denuded embryos were washed 3 times in PBS, loaded into RNAse and DNAse free PCR tubes, spin downed, and snap frozen in liquid nitrogen. Then, they were kept at −80° C. until use. As controls, dermal fibroblast cells of somatic nuclear donors were also prepared. Those fibroblast cells were cultured in a 25 cm^2 flask in DMEM 10% FBS, and approximately 10,000 cells/donor were collected, snap frozen, and stored at −80° C. until use.
Five 8-cell embryos for each group were directly lysed and used for cDNA synthesis using SMART-Seq v4 Ultra Low Input RNA Kit (Clontech). For MEF donor, 10 ng total RNA was used for cDNA synthesis using SMART-Seq v4 Ultra Low Input RNA Kit. After amplification, the cDNA samples were fragmented using Covaris sonicator M220 to an average size of 150 bp (Covaris). Sequencing libraries were made with the fragmented DNA using NEBNext Ultra DNA Library Prep Kit for Illumina according to manufacturer's instruction (New England Biolabs) with different barcodes. For each RNA-seq analysis of hESCs, 1 μg total RNA was used for mRNA purification. Barcoded RNA-seq libraries were generated using NEBNext Ultra Directional RNA Library Prep Kit for Illumina (New England Biolabs). Single end 50 bp sequencing was performed on a HiSeq 2500 sequencer (Illumina). Sequencing reads were mapped to the human genome (hg19) with Tophat2. All programs were performed with default settings (unless otherwise specified). At least 22 million uniquely mapped reads were obtained for each sequencing library, and subsequently assembled into transcripts guided by the reference annotation (Refseq gene models) with Cufflinks v2.0.2. Expression level of each gene was quantified with normalized FPKM (fragments per kilobase of exon per million mapped fragments). Statistical analyses were performed with R (available at: “www.r-project.org/”). Independent 2 group Wilcoxon rank sum tests were used to compare distributions using the wilcox.test function in R. Pearson's r coefficient was calculated using the cor function with default parameters. The hierarchical clustering analysis of the global gene expression pattern in different samples was carried out using heatmap.2 function (gplots package) in R.

KDM4A mRNA: in vitro transcribed mRNA of full length human KDM4A/JHDM3A cDNA, an H3K9me3 demethylase (SEQ ID NO: 1)
NDUFAF2 Fold Change (log2) [KDM4A SCNT/Control SCNT]: 1.16 log2
NMNAT1 Fold Change (log2) [KDM4A SCNT/Control SCNT]: 1.28 log2
NOC4L Fold Change (log2) [KDM4A SCNT/Control SCNT]: 1.15 log2
NOP58 Fold Change (log2) [KDM4A SCNT/Control SCNT]: 1.4 log2
NUDT9 Fold Change (log2) [KDM4A SCNT/Control SCNT]: 1.82 log2
PAGE5 Fold Change (log2) [KDM4A SCNT/Control SCNT]: 1.24 log2
PDCD11 Fold Change (log2) [KDM4A SCNT/Control SCNT]: 1.11 log2
PDE4DIP Fold Change (log2) [KDM4A SCNT/Control SCNT]: 1.79 log2
PHOSPHO1 Fold Change (log2) [KDM4A SCNT/Control SCNT]: 1.46 log2
PIK3R4 Fold Change (log2) [KDM4A SCNT/Control SCNT]: 1.58 log2
PLBD1 Fold Change (log2) [KDM4A SCNT/Control SCNT]: 1.69 log2
PLD2 Fold Change (log2) [KDM4A SCNT/Control SCNT]: 1.2 log2
PLVAP Fold Change (log2) [KDM4A SCNT/Control SCNT]: 1.63 log2
POLR3K Fold Change (log2) [KDM4A SCNT/Control SCNT]: 1.34 log2
POTEM Fold Change (log2) [KDM4A SCNT/Control SCNT]: 1.56 log2
PPM1N Fold Change (log2) [KDM4A SCNT/Control SCNT]: 1.68 log2
PPP2CB Fold Change (log2) [KDM4A SCNT/Control SCNT]: 2.17 log2
PRAMEF3 Fold Change (log2) [KDM4A SCNT/Control SCNT]: 2.4 log2
PRAMEF4 Fold Change (log2) [KDM4A SCNT/Control SCNT]: 1.02 log2
PRAMEF6 Fold Change (log2) [KDM4A SCNT/Control SCNT]: 1.08 log2
PRAMEF10 Fold Change (log2) [KDM4A SCNT/Control SCNT]: 1.05 log2
PRAMEF11 Fold Change (log2) [KDM4A SCNT/Control SCNT]: 1.31 log2
PRAMEF17 Fold Change (log2) [KDM4A SCNT/Control SCNT]: 1.44 log2
PRPF39 Fold Change (log2) [KDM4A SCNT/Control SCNT]: 1.4 log2
PTPN22 Fold Change (log2) [KDM4A SCNT/Control SCNT]: 2.57 log2
RAB9A Fold Change (log2) [KDM4A SCNT/Control SCNT]: 1.39 log2
RASA2 Fold Change (log2) [KDM4A SCNT/Control SCNT]: 1.36 log2
RFK Fold Change (log2) [KDM4A SCNT/Control SCNT]: 1.29 log2
RNU11 Fold Change (log2) [KDM4A SCNT/Control SCNT]: 5.27 log2
RP2 Fold Change (log2) [KDM4A SCNT/Control SCNT]: 1.82 log2
RPF2 Fold Change (log2) [KDM4A SCNT/Control SCNT]: 1.46 log2
RPS6KB2 Fold Change (log2) [KDM4A SCNT/Control SCNT]: 1.81 log2
SAMD8 Fold Change (log2) [KDM4A SCNT/Control SCNT]: 1.14 log2
SCO1 Fold Change (log2) [KDM4A SCNT/Control SCNT]: 1.15 log2
SEPX1 Fold Change (log2) [KDM4A SCNT/Control SCNT]: 1.36 log2
SERTAD1 Fold Change (log2) [KDM4A SCNT/Control SCNT]: 1.12 log2
SFTPD Fold Change (log2) [KDM4A SCNT/Control SCNT]: 2.45 log2
SGCG Fold Change (log2) [KDM4A SCNT/Control SCNT]: 2.73 log2
SGPP1 Fold Change (log2) [KDM4A SCNT/Control SCNT]: 1.41 log2
SHFM1 Fold Change (log2) [KDM4A SCNT/Control SCNT]: 1.73 log2
SIAH1 Fold Change (log2) [KDM4A SCNT/Control SCNT]: 1.7 log2
SNAPC1 Fold Change (log2) [KDM4A SCNT/Control SCNT]: 1.71 log2
SNAR-C3 Fold Change (log2) [KDM4A SCNT/Control SCNT]: 1.85 log2
SNAR-E Fold Change (log2) [KDM4A SCNT/Control SCNT]: 1.72 log2
SNHG9 Fold Change (log2) [KDM4A SCNT/Control SCNT]: 1.3 log2
SNHG12 Fold Change (log2) [KDM4A SCNT/Control SCNT]: 1.42 log2
SPINK7 Fold Change (log2) [KDM4A SCNT/Control SCNT]: 5.38 log2
SRA1 Fold Change (log2) [KDM4A SCNT/Control SCNT]: 1.23 log2
SSX3 Fold Change (log2) [KDM4A SCNT/Control SCNT]: 1.1 log2
STAG3L2 Fold Change (log2) [KDM4A SCNT/Control SCNT]: 1.35 log2
STAG3L4 Fold Change (log2) [KDM4A SCNT/Control SCNT]: 1.17 log2
STAP2 Fold Change (log2) [KDM4A SCNT/Control SCNT]: 1.25 log2
SUZ12P Fold Change (log2) [KDM4A SCNT/Control SCNT]: 1.68 log2
TAC1 Fold Change (log2) [KDM4A SCNT/Control SCNT]: 1.38 log2
TCEANC2 Fold Change (log2) [KDM4A SCNT/Control SCNT]: 1.13 log2
TCN2 Fold Change (log2) [KDM4A SCNT/Control SCNT]: 1.4 log2
TEN1 Fold Change (log2) [KDM4A SCNT/Control SCNT]: 1.66 log2
THOC5 Fold Change (log2) [KDM4A SCNT/Control SCNT]: 1.46 log2
TIMM10 Fold Change (log2) [KDM4A SCNT/Control SCNT]: 1.41 log2
TMEM41B Fold Change (log2) [KDM4A SCNT/Control SCNT]: 1.14 log2
TMEM92 Fold Change (log2) [KDM4A SCNT/Control SCNT]: 1.42 log2
TMEM159 Fold Change (log2) [KDM4A SCNT/Control SCNT]: 1.17 log2
TRIM39-RPP21 Fold Change (log2) [KDM4A SCNT/Control SCNT]: 1.09 log2
TRIML2 Fold Change (log2) [KDM4A SCNT/Control SCNT]: 1.55 log2
TSEN34 Fold Change (log2) [KDM4A SCNT/Control SCNT]: 1.28 log2
TTC27 Fold Change (log2) [KDM4A SCNT/Control SCNT]: 1.72 log2
TTC28-AS1 Fold Change (log2) [KDM4A SCNT/Control SCNT]: 1.74 log2
UBTFL1 Fold Change (log2) [KDM4A SCNT/Control SCNT]: 1.8 log2
UTP3 Fold Change (log2) [KDM4A SCNT/Control SCNT]: 1.08 log2
UTP23 Fold Change (log2) [KDM4A SCNT/Control SCNT]: 1.35 log2
UTS2 Fold Change (log2) [KDM4A SCNT/Control SCNT]: 1.28 log2
VAMP1 Fold Change (log2) [KDM4A SCNT/Control SCNT]: 2.23 log2
VCX2 Fold Change (log2) [KDM4A SCNT/Control SCNT]: 1.77 log2
VCX Fold Change (log2) [KDM4A SCNT/Control SCNT]: 1.72 log2
VPS54 Fold Change (log2) [KDM4A SCNT/Control SCNT]: 2.28 log2
WDR77 Fold Change (log2) [KDM4A SCNT/Control SCNT]: 1.18 log2
XAGE5 Fold Change (log2) [KDM4A SCNT/Control SCNT]: 1.07 log2
ZCCHC10 Fold Change (log2) [KDM4A SCNT/Control SCNT]: 1.22 log2
ZFYVE19 Fold Change (log2) [KDM4A SCNT/Control SCNT]: 1.49 log2
ZNF92 Fold Change (log2) [KDM4A SCNT/Control SCNT]: 1.03 log2
ZNF100 Fold Change (log2) [KDM4A SCNT/Control SCNT]: 2.53 log2
ZNF174 Fold Change (log2) [KDM4A SCNT/Control SCNT]: 1.24 log2
ZNF208 Fold Change (log2) [KDM4A SCNT/Control SCNT]: 1.57 log2
ZNF254 Fold Change (log2) [KDM4A SCNT/Control SCNT]: 1.37 log2
ZNF273 Fold Change (log2) [KDM4A SCNT/Control SCNT]: 1.11 log2
ZNF280A Fold Change (log2) [KDM4A SCNT/Control SCNT]: 1.34 log2
ZNF326 Fold Change (log2) [KDM4A SCNT/Control SCNT]: 1.37 log2
ZNF345 Fold Change (log2) [KDM4A SCNT/Control SCNT]: 1.46 log2
ZNF486 Fold Change (log2) [KDM4A SCNT/Control SCNT]: 1.74 log2
ZNF487P Fold Change (log2) [KDM4A SCNT/Control SCNT]: 1.2 log2
ZNF625-ZNF20 Fold Change (log2) [KDM4A SCNT/Control SCNT]: 2.32 log2
ZNF625 Fold Change (log2) [KDM4A SCNT/Control SCNT]: 1.87 log2
ZNF669 Fold Change (log2) [KDM4A SCNT/Control SCNT]: 1.08 log2
ZNF675 Fold Change (log2) [KDM4A SCNT/Control SCNT]: 1.87 log2
ZNF676 Fold Change (log2) [KDM4A SCNT/Control SCNT]: 1.29 log2
ZNF679 Fold Change (log2) [KDM4A SCNT/Control SCNT]: 2.13 log2
ZNF680 Fold Change (log2) [KDM4A SCNT/Control SCNT]: 1.18 log2
ZNF684 Fold Change (log2) [KDM4A SCNT/Control SCNT]: 1.53 log2
ZNF700 Fold Change (log2) [KDM4A SCNT/Control SCNT]: 1.49 log2
ZNF724P Fold Change (log2) [KDM4A SCNT/Control SCNT]: 1.04 log2
ZNF729 Fold Change (log2) [KDM4A SCNT/Control SCNT]: 1.75 log2
ZNF735 Fold Change (log2) [KDM4A SCNT/Control SCNT]: 1.24 log2
ZNF789 Fold Change (log2) [KDM4A SCNT/Control SCNT]: 1.28 log2
ZNF791 Fold Change (log2) [KDM4A SCNT/Control SCNT]: 1.38 log2
